Patent US9302999B2, “Substituted triazoles as herbicides” (E. I. DU PONT DE NEMOURS AND COMPANY, priority 2012, dated 2016)

How the values were obtained:
Type in all cases: in vivo
[1] = tested on: morningglory (Ipomoea coccinea); experiment: Test C pre-/postemergence: morningglory
Method in brief: (§1)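 Preemergence on seeds in loam/sand, postemergence on 2–18 cm (1–4-leaf) plants in peat-based medium; compounds in non-phytotoxic solvent with surfactant. After 13–15 days in greenhouse, visual rating versus controls, 0 (no effect) to 100 (complete control).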

[2] = tested on: velvetleaf (Abutilon theophrasti); experiment: Test C pre-/postemergence: velvetleaf
Method in brief: as §1

[3] = tested on: ducksalad (Heteranthera limosa); experiment: Test B flooded paddy: ducksalad; conditions: Flood, applied to paddy water at 2-leaf stage, visually evaluated after 13 to 15 days
Method in brief: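 Flooded-pot test: compound dosed into 3 cm of standing water above soil when plants had two leaves. Visual control ratings (0–100) versus untreated plants after 13–15 d.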

wild oat (Avena fatua) = experiment: Test C pre-/postemergence: wild oat; conditions: Postemergence
Method in brief: as §1

[4] = tested on: galium (catchweed bedstraw, Galium aparine); experiment: Test C pre-/postemergence: galium
Method in brief: as §1

corn (Zea mays) = experiment: Test C pre-/postemergence: corn
Method in brief: as §1

kochia (Kochia scoparia) = experiment: Test C pre-/postemergence: kochia; conditions: Postemergence
Method in brief: as §1

[5] = tested on: ryegrass, Italian (Italian ryegrass, Lolium multiflorum); experiment: Test C pre-/postemergence: ryegrass, Italian
Method in brief: as §1

[6] = tested on: foxtail, giant (giant foxtail, Setaria faberii); experiment: Test C pre-/postemergence: foxtail, giant
Method in brief: as §1

[7] = tested on: johnsongrass (Sorghum halepense); experiment: Test C pre-/postemergence: johnsongrass
Method in brief: as §1

[8] = tested on: large crabgrass (Digitaria sanguinalis); experiment: Test C pre-/postemergence: large crabgrass
Method in brief: as §1

[9] = Postemergence, 31 g ai/ha, scale 0 to 100 (0 no effect, 100 complete control)
[10] = Postemergence, 62 g ai/ha, scale 0 to 100 (0 no effect, 100 complete control)
[11] = Postemergence, 250 g ai/ha, scale 0 to 100 (0 no effect, 100 complete control)
[12] = Preemergence, 31 g ai/ha, scale 0 (no effect) to 100 (complete control)
[13] = Preemergence, 62 g ai/ha, scale of 0 to 100, 0 is no effect, 100 is complete control
[14] = Preemergence, 125 g ai/ha, scale 0 to 100, 0 no effect, 100 complete control
[15] = Preemergence, 250 g ai/ha, scale 0 to 100, 0 no effect, 100 complete control
[16] = Postemergence, 125 g ai/ha, scale 0 to 100, 0 no effect, 100 complete control
[17] = 31 g ai/ha, scale 0 to 100 (0 no effect, 100 complete control)
[18] = 62 g ai/ha, scale 0 to 100 (0 no effect, 100 complete control)
[19] = 125 g ai/ha, scale 0 to 100, 0 no effect, 100 complete control
[20] = 250 g ai/ha, scale 0 to 100 (0 no effect, 100 complete control)
[21] = Postemergence, 250 g ai/ha, scale 0 to 100

CCCc1nn(-c2ccc(F)c(F)c2)nc1Oc1ccnc(C(F)(F)F)c1 [Compound 172]
25: Plant response rating, Corn (corn (Zea mays); [16])
90: Plant response rating, Galium [4, 9] | Plant response rating, Galium [4, 10] | Plant response rating, Galium [4, 16] | Plant response rating, Galium [4, 11] | Plant response rating, Kochia (kochia (Kochia scoparia); [17]) | Plant response rating, Kochia (kochia (Kochia scoparia); [18]) | Plant response rating, Kochia (kochia (Kochia scoparia); [19]) | Plant response rating, Kochia (kochia (Kochia scoparia); [20])
35: Plant response rating, Morningglory [1, 13] | Plant response rating, Ryegrass, Italian [5, 16] | Plant response rating, Foxtail, Giant [6, 9] | Plant response rating, Foxtail, Giant [6, 10] | Plant response rating, Johnsongrass [7, 9]
60: Plant response rating, Velvetleaf [2, 12] | Plant response rating, Johnsongrass [7, 10] | Plant response rating, Johnsongrass [7, 12]
80: Plant response rating, Morningglory [1, 10] | Plant response rating, Morningglory [1, 11] | Plant response rating, Velvetleaf [2, 11] | Plant response rating, Oat, Wild (wild oat (Avena fatua); [20]) | Plant response rating, Galium [4, 12] | Plant response rating, Foxtail, Giant [6, 16]
5: Plant response rating, Corn (corn (Zea mays); [12]) | Plant response rating, Corn (corn (Zea mays); [13])
30: Plant response rating, Morningglory [1, 12] | Plant response rating, Corn (corn (Zea mays); [21])
10: Plant response rating, Ryegrass, Italian [5, 9]
45: Plant response rating, Oat, Wild (wild oat (Avena fatua); [19])
75: Plant response rating, Velvetleaf [2, 16] | Plant response rating, Velvetleaf [2, 13] | Plant response rating, Johnsongrass [7, 13]
70: Plant response rating, Morningglory [1, 15]
55: Plant response rating, Morningglory [1, 14] | Plant response rating, Crabgrass, Large [8, 10]
95: Plant response rating, Foxtail, Giant [6, 21] | Plant response rating, Johnsongrass [7, 11] | Plant response rating, Johnsongrass [7, 14] | Plant response rating, Crabgrass, Large [8, 21]
15: Plant response rating, Oat, Wild (wild oat (Avena fatua); [17]) | Plant response rating, Corn (corn (Zea mays); [14])
98: Plant response rating, Johnsongrass [7, 15]
100: Plant response rating, Velvetleaf [2, 14] | Plant response rating, Velvetleaf [2, 15] | Plant response rating, Galium [4, 13] | Plant response rating, Galium [4, 14] | Plant response rating, Galium [4, 15] | Plant response rating, Ryegrass, Italian [5, 12] | Plant response rating, Ryegrass, Italian [5, 13] | Plant response rating, Ryegrass, Italian [5, 14] | Plant response rating, Ryegrass, Italian [5, 15] | Plant response rating, Foxtail, Giant [6, 12] | Plant response rating, Foxtail, Giant [6, 13] | Plant response rating, Foxtail, Giant [6, 14] | Plant response rating, Foxtail, Giant [6, 15] | Plant response rating, Crabgrass, Large [8, 12] | Plant response rating, Crabgrass, Large [8, 13] | Plant response rating, Crabgrass, Large [8, 14] | Plant response rating, Crabgrass, Large [8, 15]
40: Plant response rating, Corn (corn (Zea mays); [15]) | Plant response rating, Ryegrass, Italian [5, 11]
20: Plant response rating, Oat, Wild (wild oat (Avena fatua); [18]) | Plant response rating, Corn (corn (Zea mays); [9]) | Plant response rating, Corn (corn (Zea mays); [10]) | Plant response rating, Ryegrass, Italian [5, 10] | Plant response rating, Crabgrass, Large [8, 9]
65: Plant response rating, Morningglory [1, 9] | Plant response rating, Velvetleaf [2, 9] | Plant response rating, Velvetleaf [2, 10] | Plant response rating, Johnsongrass [7, 16] | Plant response rating, Crabgrass, Large [8, 16]
0: Plant response rating, Ducksalad (0 to 100 scale, 0 is no effect, 100 is complete control) ([3]; 250 g ai/ha)

CCCc1nn(-c2ccc(F)cc2F)nc1Oc1ccnc(C(F)(F)F)c1 [Compound 179]
40: Plant response rating, Morningglory [1, 13] | Plant response rating, Ryegrass, Italian [5, 11] | Plant response rating, Foxtail, Giant [6, 10]
65: Plant response rating, Morningglory [1, 9] | Plant response rating, Morningglory [1, 15] | Plant response rating, Ducksalad (0 to 100 scale, 0 is no effect, 100 is complete control) ([3]; 125 g ai/ha)
30: Plant response rating, Velvetleaf [2, 12]
15: Plant response rating, Corn (corn (Zea mays); [9]) | Plant response rating, Corn (corn (Zea mays); [10]) | Plant response rating, Corn (corn (Zea mays); [16]) | Plant response rating, Corn (corn (Zea mays); [21]) | Plant response rating, Ryegrass, Italian [5, 10]
90: Plant response rating, Morningglory [1, 11] | Plant response rating, Galium [4, 9] | Plant response rating, Galium [4, 10] | Plant response rating, Galium [4, 16] | Plant response rating, Galium [4, 11] | Plant response rating, Kochia (kochia (Kochia scoparia); [18]) | Plant response rating, Kochia (kochia (Kochia scoparia); [19]) | Plant response rating, Kochia (kochia (Kochia scoparia); [20])
25: Plant response rating, Ryegrass, Italian [5, 16]
80: Plant response rating, Morningglory [1, 10] | Plant response rating, Morningglory [1, 16] | Plant response rating, Velvetleaf [2, 14] | Plant response rating, Velvetleaf [2, 15] | Plant response rating, Galium [4, 12] | Plant response rating, Kochia (kochia (Kochia scoparia); [17]) | Plant response rating, Foxtail, Giant [6, 21] | Plant response rating, Crabgrass, Large [8, 21]
50: Plant response rating, Oat, Wild (wild oat (Avena fatua); [20])
20: Plant response rating, Oat, Wild (wild oat (Avena fatua); [18]) | Plant response rating, Corn (corn (Zea mays); [13]) | Plant response rating, Corn (corn (Zea mays); [14]) | Plant response rating, Corn (corn (Zea mays); [15]) | Plant response rating, Johnsongrass [7, 10] | Plant response rating, Johnsongrass [7, 16] | Plant response rating, Crabgrass, Large [8, 9] | Plant response rating, Crabgrass, Large [8, 10]
35: Plant response rating, Oat, Wild (wild oat (Avena fatua); [19]) | Plant response rating, Foxtail, Giant [6, 9] | Plant response rating, Crabgrass, Large [8, 16]
75: Plant response rating, Velvetleaf [2, 10] | Plant response rating, Velvetleaf [2, 16] | Plant response rating, Velvetleaf [2, 11] | Plant response rating, Velvetleaf [2, 13]
95: Plant response rating, Ryegrass, Italian [5, 13] | Plant response rating, Ryegrass, Italian [5, 14] | Plant response rating, Ryegrass, Italian [5, 15] | Plant response rating, Johnsongrass [7, 14]
100: Plant response rating, Galium [4, 13] | Plant response rating, Galium [4, 14] | Plant response rating, Galium [4, 15] | Plant response rating, Foxtail, Giant [6, 12] | Plant response rating, Foxtail, Giant [6, 13] | Plant response rating, Foxtail, Giant [6, 14] | Plant response rating, Foxtail, Giant [6, 15] | Plant response rating, Johnsongrass [7, 15] | Plant response rating, Crabgrass, Large [8, 12] | Plant response rating, Crabgrass, Large [8, 13] | Plant response rating, Crabgrass, Large [8, 14] | Plant response rating, Crabgrass, Large [8, 15]
10: Plant response rating, Oat, Wild (wild oat (Avena fatua); [17]) | Plant response rating, Ryegrass, Italian [5, 9] | Plant response rating, Johnsongrass [7, 9]
5: Plant response rating, Morningglory [1, 12] | Plant response rating, Corn (corn (Zea mays); [12]) | Plant response rating, Johnsongrass [7, 12]
55: Plant response rating, Morningglory [1, 14] | Plant response rating, Velvetleaf [2, 9] | Plant response rating, Foxtail, Giant [6, 16] | Plant response rating, Johnsongrass [7, 11]
45: Plant response rating, Ryegrass, Italian [5, 12]
60: Plant response rating, Johnsongrass [7, 13]
